Reference: patent publication US8569331B2 (ArQule, Inc., priority 2010, dated 2013)
Structures can show the parent of a compound that is named as a salt.

The compounds below were run against T1, AKT1 (Homo sapiens, UniProt P31749) (assay: AKT1 Alpha Screen Assay). Details: full-length non-phosphorylated AKT1 8 nM, activated by PDK1 and MAPKAPK2, lipid vesicles, 50 μM ATP; biotinylated crosstide substrate; AlphaScreen.
T1 construct: Full-length non-phosphorylated AKT1 is diluted in assay buffer
T1 sequence (P31749 whole entry): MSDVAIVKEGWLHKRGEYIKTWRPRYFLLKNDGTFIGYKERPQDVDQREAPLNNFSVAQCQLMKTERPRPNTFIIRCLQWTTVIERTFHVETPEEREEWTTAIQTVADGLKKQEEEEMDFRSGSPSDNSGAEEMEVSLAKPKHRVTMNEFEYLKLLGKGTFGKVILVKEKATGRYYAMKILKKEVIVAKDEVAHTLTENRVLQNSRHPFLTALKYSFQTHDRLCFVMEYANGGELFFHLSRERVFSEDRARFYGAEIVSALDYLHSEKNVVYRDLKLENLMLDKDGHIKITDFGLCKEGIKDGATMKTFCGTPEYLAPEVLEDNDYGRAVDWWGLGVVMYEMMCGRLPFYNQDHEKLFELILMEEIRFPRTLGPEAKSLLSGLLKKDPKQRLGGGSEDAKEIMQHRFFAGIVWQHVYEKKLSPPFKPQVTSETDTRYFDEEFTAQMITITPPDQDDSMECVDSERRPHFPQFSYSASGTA
Assay type: biochemical
Method: AKT1 activity is assayed using the GSK3-derived biotinylated peptide substrate, crosstide (biotin-[…]), and AlphaScreen™ (Amplified Luminescent Proximity Homogeneous Assay) technology. AKT1 activation is achieved by the addition of the activating kinases PDK1 and MAPKAPK2, lipid vesicles, and ATP. The extent of peptide phosphorylation is determined using a phospho-AKT substrate antibody and acceptor beads conjugated to Protein A and donor beads conjugated to streptavidin that will bind to the biotin on the peptide. Excitation of the donor beads converts ambient oxygen to excited singlet oxygen which, when in close proximity to acceptor beads, reacts with acceptor beads resulting in signal amplification.
Test inhibitors and controls are prepared in 10% DMSO at 10-fold the desired final concentration, and added to each well of a reaction plate (Corning 96-well half-area solid white nonbinding surface plate) in a volume of 2.5 μL. Full-length non-phosphorylated AKT1 is diluted in assay buffer (50 mM Tris, pH 8.0, 0.02 mg/mL BSA, 10 mM MgCl2, 1 mM EGTA, 10% glycerol, 0.2 mM Na3VO4, 1 mM DTT, 0.1 mM β-glycerophosphate, and 0.2 mM NaF) and added to each well in a volume of 17.5 μL for a final concentration in the 25 μL reaction of 8 nM (Akt1). […] Assay plates are incubated for 90 minutes at room temperature in the dark, and the plates are read on a Perkin Elmer Envision Multilabel plate reader (excitation wavelength: […], emission wavelength: 570 nm).
Reaction conditions: 2.5 μL 10× Akt inhibitor in 10% DMSO; 17.5 μL non-phosphorylated Akt or buffer for blank; 20 minute pre-incubation at room temperature; 5 μL Reaction Mix (5×ATP, 5×substrate, 5×PDK1, 5×MK2, and 5× lipid vesicle mixture); 30 minute incubation at room temperature; 10 μL Detection Buffer; 90 minute incubation at room temperature and Detection (excitation: 640 nm, emission: 570 nm).
For `NC1(c2ccc(-c3c(-c4ccoc4)nc4n3-c3cccnc3Nc3ccccc3-4)cc2)CCC1` [Example 9], the IC50 was 28 nM. `NC1(c2ccc(-c3c(-c4cnccn4)nc4n3-c3cccnc3Nc3ccccc3-4)cc2)CCC1` [Example 15] was tested, and the IC50 was 14 nM. Compound `Nc1ncc(-c2nc3n(c2-c2ccc(C4(N)CCC4)cc2)-c2cccnc2Nc2ccccc2-3)cn1` [Example 31, trihydrochloride] has an IC50 of 3 nM. Work on `COc1ncc(-c2nc3n(c2-c2ccc(C4(N)CCC4)cc2)-c2cccnc2Nc2ccccc2-3)s1` [Example 68] yielded an IC50 of 27 nM. `Cn1nccc1-c1nc2n(c1-c1ccc(C3(N)CCC3)cc1)-c1cccnc1Nc1ccccc1-2` [Example 70] gave an IC50 of 343 nM. For `NC1(c2ccc(-c3c(-c4cccs4)nc4n3-c3cccnc3Nc3ccccc3-4)cc2)CCC1` [Example 83], the IC50 was 73 nM. Work on `COc1ccc(-c2nc3n(c2-c2ccc(C4(N)CCC4)c(F)c2)-c2cccnc2Nc2ccccc2-3)cc1` [Example 127] yielded an IC50 of 83 nM. For `NC1(c2ccc(-c3c(-c4ccc(F)cc4)nc4n3-c3cccnc3Nc3ccccc3-4)cc2)CCC1` [Example 134], the IC50 was 53 nM. Work on `NC1(c2ccc(-c3c(-c4ccc(F)cc4)nc4n3-c3cccnc3Nc3ccccc3-4)cc2F)CCC1` [Example 135] yielded an IC50 of 119 nM. With `NC1(c2ccc(-c3c(-c4ccccc4F)nc4n3-c3cccnc3Nc3ccccc3-4)cc2)CCC1` [Example 136] the IC50 was 84 nM. In the case of `NC1(c2ccc(-c3c(-c4ccccc4F)nc4n3-c3cccnc3Nc3ccccc3-4)cc2F)CCC1` [Example 137], the IC50 is reported as 168 nM. Compound `NC1(c2ccc(-c3c(-c4ccc(-c5ccccc5)cc4)nc4n3-c3cccnc3Nc3ccccc3-4)cc2)CCC1` [Example 138] has an IC50 of 53 nM. With `NC1(c2ccc(-c3c(-c4cccc(F)c4)nc4n3-c3cccnc3Nc3ccccc3-4)cc2)CCC1` [Example 139] the IC50 was 74 nM. With `NC1(c2ccc(-c3c(-c4cccc(F)c4)nc4n3-c3cccnc3Nc3ccccc3-4)cc2F)CCC1` [Example 140] the IC50 was 295 nM. `Cc1ccccc1-c1nc2n(c1-c1ccc(C3(N)CCC3)cc1)-c1cccnc1Nc1ccccc1-2` [Example 141] was tested, and the IC50 was 451 nM. `Cc1ccccc1-c1nc2n(c1-c1ccc(C3(N)CCC3)c(F)c1)-c1cccnc1Nc1ccccc1-2` [Example 142] was tested, and the IC50 was 485 nM. `NCc1ccc(-c2c(-c3ccccc3)nc3n2-c2cccnc2Nc2ccccc2-3)cc1` [Example 143] showed an IC50 of 122 nM. In the case of `NC1(c2ccc(-c3nc4n(c3-c3ccccc3)-c3cccnc3Nc3ccccc3-4)cc2)CCC1` [Example 144], the IC50 is reported as 184 nM. `NC1(c2ccc(-c3c(CC(=O)Nc4ccccc4)nc4n3-c3cccnc3Nc3ccccc3-4)cc2)CCC1` [Example 145] showed an IC50 greater than 1000 nM. With `Cc1cccc(NC(=O)Cc2nc3n(c2-c2ccc(C4(N)CCC4)cc2)-c2cccnc2Nc2ccccc2-3)n1` [Example 146] the IC50 was greater than 1000 nM. Compound `C[C@H](N)c1ccc(-c2c(-c3ccccc3)nc3n2-c2cccnc2Nc2ccccc2-3)cc1` [Example 147] has an IC50 of 46 nM. `C[C@@H](N)c1ccc(-c2c(-c3ccccc3)nc3n2-c2cccnc2Nc2ccccc2-3)cc1` [Example 148] was tested, and the IC50 was 66 nM. For `NCc1ccc(-c2nc3n(c2-c2ccc(C4(N)CCC4)cc2)-c2cccnc2Nc2ccccc2-3)cc1` [Example 149], the IC50 was 18 nM. Work on `NC1(c2ccc(-c3c(-c4nccs4)nc4n3-c3cccnc3Nc3ccccc3-4)cc2)CCC1` [Example 150] yielded an IC50 of 3 nM. Compound `NC1(c2ccc(-c3c(-c4ncco4)nc4n3-c3cccnc3Nc3ccccc3-4)cc2)CCC1` [Example 151] has an IC50 of 4 nM.
